# Assay results as given in ChEMBL document CHEMBL5465560, “Selectivity Literature for EUbOPEN Chemogenomic Library” (2024).
# Experiments:
# [1] = molecular target: T1, Calcium/calmodulin-dependent protein kinase type IV (Homo sapiens) (UniProt Q16566); experiment: Selectivity interaction (KinomeScan (DiscoverX)) EUB0000229b CAMK4; conditions: at 10 µM
# T1 sequence (whole entry): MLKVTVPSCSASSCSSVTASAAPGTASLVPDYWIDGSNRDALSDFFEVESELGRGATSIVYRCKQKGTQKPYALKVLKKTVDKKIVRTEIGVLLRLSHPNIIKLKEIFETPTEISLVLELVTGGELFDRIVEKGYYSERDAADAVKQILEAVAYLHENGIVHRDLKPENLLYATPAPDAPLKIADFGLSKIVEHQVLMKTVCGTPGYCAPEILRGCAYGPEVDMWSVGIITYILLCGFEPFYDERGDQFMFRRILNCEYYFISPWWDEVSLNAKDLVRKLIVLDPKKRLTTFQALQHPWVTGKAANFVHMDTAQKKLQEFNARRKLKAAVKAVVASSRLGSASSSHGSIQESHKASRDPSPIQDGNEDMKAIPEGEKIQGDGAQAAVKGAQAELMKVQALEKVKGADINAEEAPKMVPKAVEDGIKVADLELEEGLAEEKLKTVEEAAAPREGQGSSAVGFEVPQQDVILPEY
# [2] = molecular target: T2, Inhibitor of nuclear factor kappa-B kinase subunit alpha (Homo sapiens) (UniProt O15111); experiment: Selectivity interaction (KinomeScan (DiscoverX)) EUB0000595a CHUK; conditions: at 10 µM
# T2 sequence (whole entry): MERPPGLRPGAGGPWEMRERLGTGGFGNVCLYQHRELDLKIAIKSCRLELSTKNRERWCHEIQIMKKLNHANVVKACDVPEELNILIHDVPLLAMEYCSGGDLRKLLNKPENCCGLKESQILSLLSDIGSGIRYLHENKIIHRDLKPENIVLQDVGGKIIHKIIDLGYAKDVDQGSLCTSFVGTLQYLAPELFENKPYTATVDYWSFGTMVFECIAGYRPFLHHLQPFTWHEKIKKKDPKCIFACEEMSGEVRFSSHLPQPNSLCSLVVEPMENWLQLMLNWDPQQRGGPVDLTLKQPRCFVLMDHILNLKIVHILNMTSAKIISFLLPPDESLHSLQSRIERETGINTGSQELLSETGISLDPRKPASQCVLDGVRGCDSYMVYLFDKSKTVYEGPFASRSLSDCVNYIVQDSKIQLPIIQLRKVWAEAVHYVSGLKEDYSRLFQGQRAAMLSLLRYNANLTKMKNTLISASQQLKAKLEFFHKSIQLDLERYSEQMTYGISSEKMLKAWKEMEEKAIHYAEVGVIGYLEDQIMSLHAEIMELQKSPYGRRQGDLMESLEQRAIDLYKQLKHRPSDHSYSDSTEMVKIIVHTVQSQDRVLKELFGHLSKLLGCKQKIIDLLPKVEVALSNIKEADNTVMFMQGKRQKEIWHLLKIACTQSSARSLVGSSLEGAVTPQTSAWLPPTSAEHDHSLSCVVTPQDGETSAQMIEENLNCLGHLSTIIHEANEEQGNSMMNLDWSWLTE
# [3] = molecular target: Tyrosine-protein kinase SYK (Homo sapiens, UniProt P43405); experiment: Selectivity interaction (Kinase panel (Z-LYTE Assay)) EUB0001632a SYK; conditions: at 10 µM
# [4] = molecular target: T3, Serine/threonine-protein kinase DCLK3 (Homo sapiens) (UniProt Q9C098); conditions: at 10 µM
# T3 sequence (whole entry): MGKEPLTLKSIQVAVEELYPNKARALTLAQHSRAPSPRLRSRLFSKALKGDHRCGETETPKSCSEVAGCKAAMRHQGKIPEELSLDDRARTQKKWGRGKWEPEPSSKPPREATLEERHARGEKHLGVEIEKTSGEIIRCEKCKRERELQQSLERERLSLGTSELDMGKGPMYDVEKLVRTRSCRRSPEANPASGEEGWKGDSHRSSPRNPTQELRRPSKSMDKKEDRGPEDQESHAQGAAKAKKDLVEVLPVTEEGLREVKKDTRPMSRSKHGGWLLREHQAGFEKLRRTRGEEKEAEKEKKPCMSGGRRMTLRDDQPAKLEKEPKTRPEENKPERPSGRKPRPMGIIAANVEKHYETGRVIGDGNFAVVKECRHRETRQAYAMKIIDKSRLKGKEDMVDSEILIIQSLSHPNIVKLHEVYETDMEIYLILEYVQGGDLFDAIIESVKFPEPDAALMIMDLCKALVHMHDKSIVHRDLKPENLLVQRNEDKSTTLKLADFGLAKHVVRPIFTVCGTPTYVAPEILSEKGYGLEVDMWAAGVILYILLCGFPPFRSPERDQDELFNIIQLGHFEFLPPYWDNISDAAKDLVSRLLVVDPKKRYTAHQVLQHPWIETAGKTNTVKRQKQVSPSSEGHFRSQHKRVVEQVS
# [5] = molecular target: Mitogen-activated protein kinase 10 (Homo sapiens, UniProt P53779); experiment: Selectivity interaction (Millipore kinase profiler) EUB0000124b MAPK10; conditions: at 10 µM
# Chain of Mitogen-activated protein kinase 10 (P53779 whole entry): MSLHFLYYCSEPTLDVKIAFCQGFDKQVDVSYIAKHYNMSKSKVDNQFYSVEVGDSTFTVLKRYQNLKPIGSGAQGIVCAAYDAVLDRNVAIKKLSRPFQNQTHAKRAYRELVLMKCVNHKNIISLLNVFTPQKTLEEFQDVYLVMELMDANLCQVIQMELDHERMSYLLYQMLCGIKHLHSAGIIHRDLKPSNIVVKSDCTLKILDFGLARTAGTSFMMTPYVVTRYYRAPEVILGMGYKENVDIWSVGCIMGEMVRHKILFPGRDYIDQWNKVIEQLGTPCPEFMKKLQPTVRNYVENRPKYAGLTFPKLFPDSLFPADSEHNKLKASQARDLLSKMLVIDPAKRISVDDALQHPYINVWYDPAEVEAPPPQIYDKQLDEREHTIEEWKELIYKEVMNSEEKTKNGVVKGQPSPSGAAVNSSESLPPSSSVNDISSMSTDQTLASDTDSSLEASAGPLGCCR
# [6] = molecular target: Tyrosine-protein kinase ABL2 (Homo sapiens, UniProt P42684); experiment: Selectivity interaction (ProQinase) EUB0000171b ABL2
# Chain of Tyrosine-protein kinase ABL2 (P42684 whole entry): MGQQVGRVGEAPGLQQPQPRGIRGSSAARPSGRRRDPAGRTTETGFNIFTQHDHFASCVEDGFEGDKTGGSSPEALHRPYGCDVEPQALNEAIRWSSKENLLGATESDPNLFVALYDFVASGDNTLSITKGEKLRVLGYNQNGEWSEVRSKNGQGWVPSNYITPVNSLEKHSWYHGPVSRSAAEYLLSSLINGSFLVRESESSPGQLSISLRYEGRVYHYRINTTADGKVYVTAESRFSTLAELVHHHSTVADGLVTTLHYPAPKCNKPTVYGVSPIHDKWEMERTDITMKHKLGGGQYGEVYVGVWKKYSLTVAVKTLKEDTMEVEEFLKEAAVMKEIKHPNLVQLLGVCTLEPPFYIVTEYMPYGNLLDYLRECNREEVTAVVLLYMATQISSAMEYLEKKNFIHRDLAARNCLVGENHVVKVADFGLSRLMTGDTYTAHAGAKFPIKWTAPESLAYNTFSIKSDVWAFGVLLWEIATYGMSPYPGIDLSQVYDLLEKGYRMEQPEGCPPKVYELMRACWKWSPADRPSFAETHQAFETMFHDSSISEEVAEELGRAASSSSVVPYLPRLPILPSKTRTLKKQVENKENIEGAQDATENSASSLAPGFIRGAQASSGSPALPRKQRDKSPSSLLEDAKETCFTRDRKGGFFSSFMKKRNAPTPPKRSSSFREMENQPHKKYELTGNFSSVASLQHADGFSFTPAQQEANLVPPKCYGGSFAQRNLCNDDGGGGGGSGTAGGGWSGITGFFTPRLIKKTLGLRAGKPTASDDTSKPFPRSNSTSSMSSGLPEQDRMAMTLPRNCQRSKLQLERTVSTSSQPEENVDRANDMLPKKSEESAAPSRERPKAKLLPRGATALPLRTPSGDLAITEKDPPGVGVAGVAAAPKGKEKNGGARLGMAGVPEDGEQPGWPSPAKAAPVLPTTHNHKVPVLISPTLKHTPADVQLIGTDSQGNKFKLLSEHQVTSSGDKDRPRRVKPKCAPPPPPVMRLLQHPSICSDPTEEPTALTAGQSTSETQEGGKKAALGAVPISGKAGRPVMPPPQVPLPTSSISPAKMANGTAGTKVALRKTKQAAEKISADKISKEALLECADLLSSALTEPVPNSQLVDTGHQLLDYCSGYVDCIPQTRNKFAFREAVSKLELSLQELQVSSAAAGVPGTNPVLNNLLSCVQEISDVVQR
# [7] = molecular target: Testis-specific serine/threonine-protein kinase 4 (Homo sapiens) (UniProt Q6SA08); experiment: Selectivity interaction (Kinase panel (Eurofins)) EUB0001564a TSSK4; conditions: at 1 µM
# Chain of Testis-specific serine/threonine-protein kinase 4 (Homo sapiens) (Q6SA08 whole entry): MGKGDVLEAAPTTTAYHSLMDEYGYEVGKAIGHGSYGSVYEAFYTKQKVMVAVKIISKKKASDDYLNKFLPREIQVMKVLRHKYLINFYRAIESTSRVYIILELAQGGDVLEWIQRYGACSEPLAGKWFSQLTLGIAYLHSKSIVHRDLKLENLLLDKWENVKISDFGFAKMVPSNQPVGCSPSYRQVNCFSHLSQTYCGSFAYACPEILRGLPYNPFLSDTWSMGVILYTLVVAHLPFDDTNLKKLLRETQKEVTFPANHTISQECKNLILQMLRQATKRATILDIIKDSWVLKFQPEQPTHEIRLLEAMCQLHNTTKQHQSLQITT
# [8] = molecular target: Tyrosine-protein kinase receptor UFO (Homo sapiens) (UniProt P30530); experiment: Selectivity interaction (KinomeScan (DiscoverX)) EUB0001619a AXL; conditions: at 1 µM
# Chain of Tyrosine-protein kinase receptor UFO (Homo sapiens) (P30530 whole entry): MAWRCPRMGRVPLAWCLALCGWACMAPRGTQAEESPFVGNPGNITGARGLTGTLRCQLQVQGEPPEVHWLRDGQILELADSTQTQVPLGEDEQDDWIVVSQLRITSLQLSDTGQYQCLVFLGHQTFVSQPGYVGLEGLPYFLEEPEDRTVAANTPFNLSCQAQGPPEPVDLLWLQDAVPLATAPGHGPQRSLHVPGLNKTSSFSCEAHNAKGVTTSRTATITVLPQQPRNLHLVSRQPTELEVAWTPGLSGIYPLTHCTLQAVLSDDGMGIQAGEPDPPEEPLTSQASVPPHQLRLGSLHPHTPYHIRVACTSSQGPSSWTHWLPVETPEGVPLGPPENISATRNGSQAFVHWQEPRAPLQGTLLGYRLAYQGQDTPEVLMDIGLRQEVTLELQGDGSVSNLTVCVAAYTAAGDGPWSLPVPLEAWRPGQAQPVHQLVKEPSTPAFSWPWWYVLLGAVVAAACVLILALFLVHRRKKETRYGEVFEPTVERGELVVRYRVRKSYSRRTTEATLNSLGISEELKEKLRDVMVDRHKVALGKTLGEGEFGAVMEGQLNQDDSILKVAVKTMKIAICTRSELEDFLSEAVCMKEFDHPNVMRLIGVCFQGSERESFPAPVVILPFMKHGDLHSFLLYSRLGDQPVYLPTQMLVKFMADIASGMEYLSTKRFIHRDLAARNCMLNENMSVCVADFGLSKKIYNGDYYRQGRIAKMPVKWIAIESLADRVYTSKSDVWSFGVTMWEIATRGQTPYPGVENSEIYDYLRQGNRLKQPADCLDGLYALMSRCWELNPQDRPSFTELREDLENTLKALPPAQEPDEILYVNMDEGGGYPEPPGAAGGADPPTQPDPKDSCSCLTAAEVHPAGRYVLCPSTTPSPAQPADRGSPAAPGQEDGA
# [9] = molecular target: T4, Serine/threonine-protein kinase Nek2 (Homo sapiens) (UniProt P51955); experiment: Selectivity interaction (Kinase panel (literature)) EUB0001199aCl NEK2; conditions: at 1 µM
# T4 sequence (whole entry): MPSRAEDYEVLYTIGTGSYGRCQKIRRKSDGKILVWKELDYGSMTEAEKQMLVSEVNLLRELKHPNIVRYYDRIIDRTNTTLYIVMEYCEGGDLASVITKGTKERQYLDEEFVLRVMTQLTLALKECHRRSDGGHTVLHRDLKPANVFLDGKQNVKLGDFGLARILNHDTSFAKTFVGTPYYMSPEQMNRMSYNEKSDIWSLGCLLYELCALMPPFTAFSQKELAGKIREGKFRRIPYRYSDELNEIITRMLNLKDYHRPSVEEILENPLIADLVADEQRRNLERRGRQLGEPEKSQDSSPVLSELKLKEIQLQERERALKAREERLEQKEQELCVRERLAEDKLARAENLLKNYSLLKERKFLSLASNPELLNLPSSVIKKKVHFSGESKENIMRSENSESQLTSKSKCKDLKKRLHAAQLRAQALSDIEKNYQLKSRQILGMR
# [10] = molecular target: Proto-oncogene tyrosine-protein kinase Src (Homo sapiens, UniProt P12931); experiment: Selectivity interaction (KinomeScan (DiscoverX)) EUB0000607a SRC; conditions: at 10 µM
# Chain of Proto-oncogene tyrosine-protein kinase Src (P12931 2-536 limits assumed): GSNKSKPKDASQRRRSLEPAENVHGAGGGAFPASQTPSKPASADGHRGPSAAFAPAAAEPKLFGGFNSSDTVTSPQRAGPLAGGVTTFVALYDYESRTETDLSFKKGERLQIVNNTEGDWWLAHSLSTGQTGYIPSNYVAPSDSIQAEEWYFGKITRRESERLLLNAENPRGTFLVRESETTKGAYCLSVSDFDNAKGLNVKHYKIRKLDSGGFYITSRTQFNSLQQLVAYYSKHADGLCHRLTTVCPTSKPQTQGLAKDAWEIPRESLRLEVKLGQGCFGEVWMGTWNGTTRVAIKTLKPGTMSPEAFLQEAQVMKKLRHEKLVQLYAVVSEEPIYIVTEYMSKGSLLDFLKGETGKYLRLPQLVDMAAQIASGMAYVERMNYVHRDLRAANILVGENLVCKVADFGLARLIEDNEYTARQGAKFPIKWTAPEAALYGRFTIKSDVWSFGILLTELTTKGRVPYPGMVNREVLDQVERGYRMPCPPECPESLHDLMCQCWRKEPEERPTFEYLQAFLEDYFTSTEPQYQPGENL
# [11] = molecular target: Non-receptor tyrosine-protein kinase TYK2 (Homo sapiens, UniProt P29597); experiment: Selectivity interaction (ActivX KiNativ screen (kinase selectivity in THP-1 cell lysates)) EUB0000639a TYK2; type: subcellular; conditions: lysate, at 1 µM
# Chain of Non-receptor tyrosine-protein kinase TYK2 (P29597 whole entry): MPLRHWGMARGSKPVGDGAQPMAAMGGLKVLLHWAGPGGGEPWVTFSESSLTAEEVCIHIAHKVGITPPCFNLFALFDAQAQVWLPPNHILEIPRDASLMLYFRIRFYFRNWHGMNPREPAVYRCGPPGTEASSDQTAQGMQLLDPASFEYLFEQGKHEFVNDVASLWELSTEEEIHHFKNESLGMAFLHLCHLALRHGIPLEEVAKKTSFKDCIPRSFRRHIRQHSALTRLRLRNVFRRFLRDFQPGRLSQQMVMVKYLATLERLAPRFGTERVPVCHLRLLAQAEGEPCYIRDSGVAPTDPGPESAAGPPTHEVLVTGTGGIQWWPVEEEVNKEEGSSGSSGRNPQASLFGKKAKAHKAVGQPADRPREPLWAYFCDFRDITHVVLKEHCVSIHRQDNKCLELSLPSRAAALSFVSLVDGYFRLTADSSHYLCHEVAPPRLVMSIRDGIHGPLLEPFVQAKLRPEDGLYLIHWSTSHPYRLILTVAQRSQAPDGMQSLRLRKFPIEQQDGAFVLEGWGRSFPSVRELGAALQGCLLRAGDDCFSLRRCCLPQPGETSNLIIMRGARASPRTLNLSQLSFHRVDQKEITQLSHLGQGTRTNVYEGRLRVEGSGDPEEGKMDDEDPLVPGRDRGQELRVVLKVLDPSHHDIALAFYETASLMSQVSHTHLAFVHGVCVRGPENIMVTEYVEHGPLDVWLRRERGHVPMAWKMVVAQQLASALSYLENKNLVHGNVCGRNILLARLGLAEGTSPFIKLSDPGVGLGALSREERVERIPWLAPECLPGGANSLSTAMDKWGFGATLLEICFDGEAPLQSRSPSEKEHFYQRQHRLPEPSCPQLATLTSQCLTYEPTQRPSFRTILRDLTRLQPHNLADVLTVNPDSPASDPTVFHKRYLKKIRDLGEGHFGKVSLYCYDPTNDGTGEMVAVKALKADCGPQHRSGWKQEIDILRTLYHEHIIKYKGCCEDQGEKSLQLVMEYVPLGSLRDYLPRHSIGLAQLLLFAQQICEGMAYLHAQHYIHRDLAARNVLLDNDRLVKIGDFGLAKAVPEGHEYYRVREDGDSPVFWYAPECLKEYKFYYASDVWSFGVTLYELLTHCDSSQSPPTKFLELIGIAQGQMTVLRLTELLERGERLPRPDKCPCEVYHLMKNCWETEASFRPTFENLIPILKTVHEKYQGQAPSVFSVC
smiles,measurement,setting,value
COc1cc(N(C)c2ccnc3ccc(C(F)(F)F)cc23)cc(OC)c1OC,% binding,[1],98%
COCC(=O)NC/C=C/c1ccc2ncnc(Nc3ccc(Oc4ccc(C)nc4)c(C)c3)c2c1 [CP-724714],% of control,[2],100%
Cn1cc(-n2cnc3c(NCc4nc5cc(Cl)c(Cl)cc5[nH]4)nc(N4CCOCC4)nc32)cn1,% of control,[3],3.71%
Cc1cc([C@@H](C)Nc2ccccc2C(=O)O)c2nc(N3CCOCC3)cc(=O)n2c1 [AZD-6482],% of control,[4],85%
CC(=O)Nc1cccc(-n2c(=O)n(C3CC3)c(=O)c3c(Nc4ccc(I)cc4F)n(C)c(=O)c(C)c32)c1,% of control,[5],76%
C=CC(=O)Nc1cccc(C(=O)Nc2ccc(Nc3cc(-c4[nH]c(SC)nc4C)ccn3)cc2)c1,% of control,[6]; at 1 µM,74%
same,% of control,[6]; at 5 µM,84%
CC[C@@H](Nc1c(C#N)c(-c2ccc(-c3cccc(C)c3F)cc2)nc2cnccc12)C(=O)O [BAY-091],% of inhibition,[7],24%
N#Cc1cccc(-c2c[nH]c3ncnc(N4CCOCC4)c23)c1,% of control,[8],99%
CN1Cc2nccc(-c3cn(C)nc3-c3ccc(F)cc3)c2C1=O,% of inhibition,[9],4%
CNC(=O)Nc1ccc(-c2nc(N3CC4CCC(C3)O4)c3cnn(C4CCC5(CC4)OCCO5)c3n2)cc1,% of control,[10],75%
CC[C@@H]1[C@H](F)C(=O)N[C@@H]1COc1nccc2cc(C(N)=O)c(OC)cc12 [ZIMLOVISERTIB],% of inhibition,[11],-8.7%
